This is an account of results in patent publication US9181199B2, “Uracil derivatives and use thereof” (RESprotect GmbH, priority 2008, dated 2015).

What is called melting point is the temperature, or range, at which the solid turns liquid.

`C#Cc1cn(Cc2ccccc2)c(=O)[nH]c1=O` [compound R, 1-Benzyl-5-ethynyluracil] came in with a melting point of 190 to 193 °C.
As for `C[Si](C)(C)C#Cc1cn(Cc2ccccc2)c(=O)[nH]c1=O`, the melting point was 213 to 215 °C.
As to `O=c1[nH]c(=O)n(Cc2ccccc2)cc1C#CBr` [compound D, 1-Benzyl-5-bromoethynyluracil], the melting point was 162 to 165 °C.
`O=c1c(C=CBr)cn(C(c2ccccc2)c2ccccc2)c(=O)n1Cc1ccccc1` [compound A, 1-Benzhydryl-3-benzyl-5-(2-bromovinyl)uracil] displayed a melting point of 131 °C.
In turn, `C=CCn1cc(C#CBr)c(=O)[nH]c1=O` [compound I, 1-Allyl-5-bromoethynyluracil] displayed a melting point of 164 to 168 °C.
The result for `O=c1[nH]c(=O)n(Cc2ccccc2)cc1C=C(Br)Br` [compound L, 1-Benzyl-5-(2,2-dibromovinyl)uracil] reads 205 to 206 °C.
In the case of `CC(c1ccccc1)n1cc(C=C(Br)Br)c(=O)[nH]c1=O` (stereo not shown) [compound M, 1-(1-Phenylethyl)-5-(2,2-dibromovinyl)uracil], the melting point lay within 179 to 183 °C.
Compound `CC(c1ccccc1)n1cc(C#CBr)c(=O)[nH]c1=O` (stereo not shown) [compound N, 1-(1-Phenylethyl)-5-bromoethynyluracil] gave a melting point of 163 to 167 °C.
`C=CCn1cc(C=C(Br)Br)c(=O)[nH]c1=O` [compound H, 1-Allyl-5-(2,2-dibromovinyl)uracil] gave a melting point of 154 to 156 °C.
`N#CC=Cc1cn(C(c2ccccc2)c2ccccc2)c(=O)[nH]c1=O` [compound G, 1-Benzhydryl-5-(2-cyanovinyl)uracil] returned a melting point of 261 °C.
In turn, `O=c1[nH]c(=O)n(C(c2ccccc2)c2ccccc2)cc1-c1c[nH]nn1` [compound F, 1-Benzhydryl-5-(1H-1,2,3-triazol-4-yl)uracil] returned a melting point of 165 °C.
In turn, `O=c1[nH]c(=O)n(Cc2ccccc2)cc1C=CBr` [compound B, 1-Benzyl-5-(2-bromovinyl)uracil] showed a melting point of 183 °C.
In the case of `C=CCn1cc(C=CBr)c(=O)[nH]c1=O` [compound C, 1-Allyl-5-(2-bromovinyl)uracil] it was 137 °C.
